Measured values from patent EP4772497A1, “POLYMORPHS OF NITROGEN-CONTAINING HETEROCYCLIC COMPOUNDS, AND USES THEREOF” (BNH Research Co., Ltd., priority 2023, dated 2025).

Columns and labels:
[1] = Parallel artificial membrane permeability assay (PAMPA) for BBB permeability; type: in vitro ADME
Protocol: • PAMPA: PMBBB-096 Kit • Assay format: 96-well plate • Reference substance: Imipramine (H) (10 µM) • Test substance concentration: 10 µM • Number of replicates: 3 • Reaction time: 6 hours at 25°C on a shaker (75 - 80 rpm) • Analytical method: LC-MS/MS • Data processing: Pe (cm/s)
The test compounds (crystalline forms A and C) were dissolved in DMSO at a concentration of 10 mM […] to prepare standard solutions. Next, dried brain lipids were resuspended in 600 µL dodecane to prepare a BBB lipid solution in dodecane. Pipetting up and down was repeated (~100 times) until all dried brain lipids were dissolved (vortexing or sonication may be helpful). A 10 µM reaction solution in PBS containing 5% DMSO was prepared.
The experiments were conducted in a 96-well plate using the prepared reaction solution of each test compound and the BBB lipid solution according to the following assay procedure. • 1. 500 µL of a 500 µM test compound solution (prepared by mixing 25 µL of a 10 mM test compound + 475 µL of PBS (pH 7.2) in DMSO) was prepared in a separate centrifuge tube. When a permeability control was used, it was diluted to 500 µM using PBS (prepared by mixing 25 µL of permeability control + 475 µL of PBS (pH 7.2)). • 2. For each test compound and control, a 200 µM equilibrium standard was prepared in a separate tube (by mixing 80 µL of 500 µM test compound or control with 120 µL of PBS (pH 7.2)). […] The absorbance spectrum from 200 nm to 500 nm was measured at 10 nm intervals to determine the peak absorbance of the test compounds. […] The peak absorbances of the high-permeability and low-permeability controls are 250 nm and 270 nm, respectively.
For the compounds and permeability controls, the permeability rate (Pe) was determined using the following equation: Pe = C × −ln(1−(ODA)/(ODE))cm/s [formula]
Here, ODA is the absorbance of the acceptor solution minus the blank, and ODE is the absorbance of the equilibrium standard minus the blank. For each absorbance value, the peak absorbance determined for each test was used. […]

Aβ plaques = assay: Bielschowsky silver staining of brain sections; type: in vivo, mice; details: 1 mg/kg orally, cerebral cortex, vs vehicle control
Protocol: To evaluate the efficacy of crystalline form C of the present disclosure in inhibiting amyloid-beta protein accumulation, mouse proteomic profiling array analysis and Bielschowsky silver staining were performed. […]
Bielschowski silver staining (Bielschowski Silver Staining Kit, ab245877, abcam, Cambridge, UK) was performed according to the manufacturer's protocol. 40 µm-thick brain sections of APP/PS1 mice were incubated in a warm 20% silver nitrate solution at 40°C for 15 minutes, followed by four washes with distilled water and three rinses with water for 3 minutes each. The slides were incubated in an ammoniacal silver solution at 40°C for 10 minutes, and then placed in a developer solution (containing 8 drops of 20% formalin, 8 drops of citric acid, and 4 drops of nitric acid in 50 mL H2O) for a few seconds until the tissue sections turned yellow/brown. Subsequently, the slides were placed in aqueous ammonia for 30 seconds. The sections were washed three times with water for 2 minutes each and incubated in a 5% thiosulfate solution for 2 minutes. […]
Statistical analysis was performed using GraphPad Prism 9.5.0 software (San Diego, CA, USA). […] All data are expressed as mean ± SEM.

PAMPA Pe ([1]; BBB lipid membrane, PBS (pH 7.2)): 11.79 10^-9 cm/sec
Compound: C[C@@H]1CC[C@H](C(=O)O)CN1C(=O)Cc1ccc(F)cc1Cl [Crystalline form C, (3S,6R)-1-(2-(2-chloro-4-fluorophenyl)acetyl)-6-methylpiperidine-3-carboxylic acid]
BBB permeability, comparison of forms ([1]; PAMPA): superior BBB permeability compared to crystalline form A | Aβ plaques (percent area) (Aβ plaques): reduced Aβ plaques
